Test: recombinant barcode read abundance after kanamycin selection (control-corrected) (log10(CPM+1)); higher = more efficient recombination; sequences stand for … in AGTGCAGAGAAAATCGGCCAGTTTTCTCTGCCTGCAGTCCGCATGCCGT…ATTTATGCAGCGGACTGCCTTTCTCCCAAAGTGATAAACCGGACAGTATCATGGACCGGTTTTCCCGGTAATCCGTATTTGCAAGGTTGGTTTCACT; site = the 11-nt target
Procedure: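 Same pooled E. coli target screen (IS621 bridge recombinase, kanamycin selection, control-corrected CPM, mean of 2 biological replicates). Here the two core-binding nucleotides of the LTG and RTG of the bridge RNA target-binding loop are mutated. Target and donor CT cores are held constant, and the other 9 guide positions match the target. The target is read from the library oligo sequence. Molecule = full bridge RNA written as DNA: nt 1-80 from the library oligo, rest WT scaffold.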
With “AGGCCTCCTTGGGTTCTAACCTGTTGCCTTC [AGGCCTCCTAG_LTGcore_CT_RTGcore_GA] (site AGGCCTCCTAG) (LTG core: CT, RTG core: GA)” the “recombinant barcode read abundance (log10)” value was 0.109.
With “AGGCCTCGCTGGGTTCTAACCTGTTGCCTGC [AGGCCTCCTAG_LTGcore_GC_RTGcore_GC] (site AGGCCTCCTAG) (LTG core: GC, RTG core: GC)” the “recombinant barcode read abundance (log10)” value was 0.137.
With “AGGCCTCTATGGGTTCTAACCTGTTGCCTAG [AGGCCTCCTAG_LTGcore_TA_RTGcore_CT] (site AGGCCTCCTAG) (LTG core: TA, RTG core: CT)” the “recombinant barcode read abundance (log10)” value was 0.0484.
In the case of “AGGCCTCTCTGGGTTCTAACCTGTTGCCTAG [AGGCCTCCTAG_LTGcore_TC_RTGcore_CT] (site AGGCCTCCTAG) (LTG core: TC, RTG core: CT)”, the “recombinant barcode read abundance (log10)” value is reported as 0.137.
For “AGGCGGGACTGGGTTCTAACCTGTTGCGGAG [AGGCGGGCTCC_LTGcore_AC_RTGcore_CT] (site AGGCGGGCTCC) (LTG core: AC, RTG core: CT)”, the “recombinant barcode read abundance (log10)” value was 0.555.
In the case of “AGGCGGGACTGGGTTCTAACCTGTTGCGGGT [AGGCGGGCTCC_LTGcore_AC_RTGcore_AC] (site AGGCGGGCTCC) (LTG core: AC, RTG core: AC)”, the “recombinant barcode read abundance (log10)” value is reported as 0.011.
With “AGGCGGGCCTGGGTTCTAACCTGTTGCGGGG [AGGCGGGCTCC_LTGcore_CC_RTGcore_CC] (site AGGCGGGCTCC) (LTG core: CC, RTG core: CC)” the “recombinant barcode read abundance (log10)” value was 0.126.
For “AGGCGGGCTTGGGTTCTAACCTGTTGCGGAC [AGGCGGGCTCC_LTGcore_CT_RTGcore_GT] (site AGGCGGGCTCC) (LTG core: CT, RTG core: GT)”, the “recombinant barcode read abundance (log10)” value was 0.13.
For “AGGCGGGCTTGGGTTCTAACCTGTTGCGGAT [AGGCGGGCTCC_LTGcore_CT_RTGcore_AT] (site AGGCGGGCTCC) (LTG core: CT, RTG core: AT)”, the “recombinant barcode read abundance (log10)” value was 0.513.
For “AGGCGGGCTTGGGTTCTAACCTGTTGCGGCG [AGGCGGGCTCC_LTGcore_CT_RTGcore_CG] (site AGGCGGGCTCC) (LTG core: CT, RTG core: CG)”, the “recombinant barcode read abundance (log10)” value was 0.146.
In the case of “AGGCGGGCTTGGGTTCTAACCTGTTGCGGGA [AGGCGGGCTCC_LTGcore_CT_RTGcore_TC] (site AGGCGGGCTCC) (LTG core: CT, RTG core: TC)”, the “recombinant barcode read abundance (log10)” value is reported as 0.253.
In the case of “AGGCGGGCTTGGGTTCTAACCTGTTGCGGTC [AGGCGGGCTCC_LTGcore_CT_RTGcore_GA] (site AGGCGGGCTCC) (LTG core: CT, RTG core: GA)”, the “recombinant barcode read abundance (log10)” value is reported as 0.246.
In the case of “AGGCGGGGATGGGTTCTAACCTGTTGCGGTC [AGGCGGGCTCC_LTGcore_GA_RTGcore_GA] (site AGGCGGGCTCC) (LTG core: GA, RTG core: GA)”, the “recombinant barcode read abundance (log10)” value is reported as 0.133.
With “AGGCGGGGGTGGGTTCTAACCTGTTGCGGAG [AGGCGGGCTCC_LTGcore_GG_RTGcore_CT] (site AGGCGGGCTCC) (LTG core: GG, RTG core: CT)” the “recombinant barcode read abundance (log10)” value was 0.101.
For “AGGCGGGGTTGGGTTCTAACCTGTTGCGGAG [AGGCGGGCTCC_LTGcore_GT_RTGcore_CT] (site AGGCGGGCTCC) (LTG core: GT, RTG core: CT)”, the “recombinant barcode read abundance (log10)” value was 0.871.
In the case of “AGGCGGGTATGGGTTCTAACCTGTTGCGGTA [AGGCGGGCTCC_LTGcore_TA_RTGcore_TA] (site AGGCGGGCTCC) (LTG core: TA, RTG core: TA)”, the “recombinant barcode read abundance (log10)” value is reported as 0.364.
For “AGGCGGGTTTGGGTTCTAACCTGTTGCGGAA [AGGCGGGCTCC_LTGcore_TT_RTGcore_TT] (site AGGCGGGCTCC) (LTG core: TT, RTG core: TT)”, the “recombinant barcode read abundance (log10)” value was 0.299.
In the case of “AGGCGGTAATGGGTTCTAACCTGTTGCTTAG [AGGCGGTCTAA_LTGcore_AA_RTGcore_CT] (site AGGCGGTCTAA) (LTG core: AA, RTG core: CT)”, the “recombinant barcode read abundance (log10)” value is reported as 0.371.
In the case of “AGGCGGTAATGGGTTCTAACCTGTTGCTTTT [AGGCGGTCTAA_LTGcore_AA_RTGcore_AA] (site AGGCGGTCTAA) (LTG core: AA, RTG core: AA)”, the “recombinant barcode read abundance (log10)” value is reported as 0.0996.
In the case of “AGGCGGTCTTGGGTTCTAACCTGTTGCTTCC [AGGCGGTCTAA_LTGcore_CT_RTGcore_GG] (site AGGCGGTCTAA) (LTG core: CT, RTG core: GG)”, the “recombinant barcode read abundance (log10)” value is reported as 0.0963.
With “AGGCGGTCTTGGGTTCTAACCTGTTGCTTGT [AGGCGGTCTAA_LTGcore_CT_RTGcore_AC] (site AGGCGGTCTAA) (LTG core: CT, RTG core: AC)” the “recombinant barcode read abundance (log10)” value was 0.127.
In the case of “AGGCGGTCTTGGGTTCTAACCTGTTGCTTTT [AGGCGGTCTAA_LTGcore_CT_RTGcore_AA] (site AGGCGGTCTAA) (LTG core: CT, RTG core: AA)”, the “recombinant barcode read abundance (log10)” value is reported as 0.0668.
With “AGGCGGTGCTGGGTTCTAACCTGTTGCTTAG [AGGCGGTCTAA_LTGcore_GC_RTGcore_CT] (site AGGCGGTCTAA) (LTG core: GC, RTG core: CT)” the “recombinant barcode read abundance (log10)” value was 0.419.
In the case of “AGGCGGTGTTGGGTTCTAACCTGTTGCTTAG [AGGCGGTCTAA_LTGcore_GT_RTGcore_CT] (site AGGCGGTCTAA) (LTG core: GT, RTG core: CT)”, the “recombinant barcode read abundance (log10)” value is reported as 0.203.
With “AGGCGGTTGTGGGTTCTAACCTGTTGCTTAG [AGGCGGTCTAA_LTGcore_TG_RTGcore_CT] (site AGGCGGTCTAA) (LTG core: TG, RTG core: CT)” the “recombinant barcode read abundance (log10)” value was 0.113.
For “AGTCTTAAGTGGGTTCTAACCTGTTGCCAAG [AGTCTTACTTG_LTGcore_AG_RTGcore_CT] (site AGTCTTACTTG) (LTG core: AG, RTG core: CT)”, the “recombinant barcode read abundance (log10)” value was 0.102.
For “AGTCTTAATTGGGTTCTAACCTGTTGCCAAT [AGTCTTACTTG_LTGcore_AT_RTGcore_AT] (site AGTCTTACTTG) (LTG core: AT, RTG core: AT)”, the “recombinant barcode read abundance (log10)” value was 0.0434.
With “AGTCTTACCTGGGTTCTAACCTGTTGCCAGG [AGTCTTACTTG_LTGcore_CC_RTGcore_CC] (site AGTCTTACTTG) (LTG core: CC, RTG core: CC)” the “recombinant barcode read abundance (log10)” value was 0.117.
With “AGTCTTACTTGGGTTCTAACCTGTTGCCACA [AGTCTTACTTG_LTGcore_CT_RTGcore_TG] (site AGTCTTACTTG) (LTG core: CT, RTG core: TG)” the “recombinant barcode read abundance (log10)” value was 0.032.
For “AGTCTTATATGGGTTCTAACCTGTTGCCAAG [AGTCTTACTTG_LTGcore_TA_RTGcore_CT] (site AGTCTTACTTG) (LTG core: TA, RTG core: CT)”, the “recombinant barcode read abundance (log10)” value was 0.0306.
In the case of “AGTCTTATTTGGGTTCTAACCTGTTGCCAAA [AGTCTTACTTG_LTGcore_TT_RTGcore_TT] (site AGTCTTACTTG) (LTG core: TT, RTG core: TT)”, the “recombinant barcode read abundance (log10)” value is reported as 0.0474.
For “ATGCTTTAATGGGTTCTAACCTGTTGCCTAG [ATGCTTTCTAG_LTGcore_AA_RTGcore_CT] (site ATGCTTTCTAG) (LTG core: AA, RTG core: CT)”, the “recombinant barcode read abundance (log10)” value was 0.0699.
For “ATGCTTTATTGGGTTCTAACCTGTTGCCTAG [ATGCTTTCTAG_LTGcore_AT_RTGcore_CT] (site ATGCTTTCTAG) (LTG core: AT, RTG core: CT)”, the “recombinant barcode read abundance (log10)” value was 0.162.
With “ATGCTTTCTTGGGTTCTAACCTGTTGCCTAG [ATGCTTTCTAG_LTGcore_CT_RTGcore_CT] (site ATGCTTTCTAG) (LTG core: CT, RTG core: CT)” the “recombinant barcode read abundance (log10)” value was 0.384.
In the case of “ATGCTTTCTTGGGTTCTAACCTGTTGCCTCT [ATGCTTTCTAG_LTGcore_CT_RTGcore_AG] (site ATGCTTTCTAG) (LTG core: CT, RTG core: AG)”, the “recombinant barcode read abundance (log10)” value is reported as 0.0217.
For “ATGCTTTCTTGGGTTCTAACCTGTTGCCTGA [ATGCTTTCTAG_LTGcore_CT_RTGcore_TC] (site ATGCTTTCTAG) (LTG core: CT, RTG core: TC)”, the “recombinant barcode read abundance (log10)” value was 0.0714.
In the case of “ATGCTTTGCTGGGTTCTAACCTGTTGCCTAG [ATGCTTTCTAG_LTGcore_GC_RTGcore_CT] (site ATGCTTTCTAG) (LTG core: GC, RTG core: CT)”, the “recombinant barcode read abundance (log10)” value is reported as 0.0505.
With “ATGCTTTGGTGGGTTCTAACCTGTTGCCTCC [ATGCTTTCTAG_LTGcore_GG_RTGcore_GG] (site ATGCTTTCTAG) (LTG core: GG, RTG core: GG)” the “recombinant barcode read abundance (log10)” value was 0.235.
For “ATGTCCCACTGGGTTCTAACCTGTTGCTCGT [ATGTCCCCTGA_LTGcore_AC_RTGcore_AC] (site ATGTCCCCTGA) (LTG core: AC, RTG core: AC)”, the “recombinant barcode read abundance (log10)” value was 0.183.
With “ATGTCCCAGTGGGTTCTAACCTGTTGCTCAG [ATGTCCCCTGA_LTGcore_AG_RTGcore_CT] (site ATGTCCCCTGA) (LTG core: AG, RTG core: CT)” the “recombinant barcode read abundance (log10)” value was 0.0996.
For “ATGTCCCATTGGGTTCTAACCTGTTGCTCAG [ATGTCCCCTGA_LTGcore_AT_RTGcore_CT] (site ATGTCCCCTGA) (LTG core: AT, RTG core: CT)”, the “recombinant barcode read abundance (log10)” value was 0.234.
In the case of “ATGTCCCCTTGGGTTCTAACCTGTTGCTCCG [ATGTCCCCTGA_LTGcore_CT_RTGcore_CG] (site ATGTCCCCTGA) (LTG core: CT, RTG core: CG)”, the “recombinant barcode read abundance (log10)” value is reported as 0.249.
For “ATGTCCCCTTGGGTTCTAACCTGTTGCTCGC [ATGTCCCCTGA_LTGcore_CT_RTGcore_GC] (site ATGTCCCCTGA) (LTG core: CT, RTG core: GC)”, the “recombinant barcode read abundance (log10)” value was 0.327.
With “ATGTCCCCTTGGGTTCTAACCTGTTGCTCGG [ATGTCCCCTGA_LTGcore_CT_RTGcore_CC] (site ATGTCCCCTGA) (LTG core: CT, RTG core: CC)” the “recombinant barcode read abundance (log10)” value was 0.29.
